{"source": "patent US20230095912A1", "about": "“Composition and Methods for Selective Degradation of Engineered Proteins” (Celgene Corporation, priority 2021, published 2023)", "key": {"[1]": {"molecular_target": "T1, CD19 CARs tagged with IKZF1 ZNF2_ZNF3 Q1F (Homo sapiens, UniProt Q13422, Q146F)", "T1 construct": "EC50 (Q1F degron); other: Jurkat cells, 18 hours, CAR levels normalized to no drug; Ymin (Q1F degron); Ymin (%); minimum percent protein remaining; Nluc reporter", "T1 sequence (Q13422 whole entry Q146F)": "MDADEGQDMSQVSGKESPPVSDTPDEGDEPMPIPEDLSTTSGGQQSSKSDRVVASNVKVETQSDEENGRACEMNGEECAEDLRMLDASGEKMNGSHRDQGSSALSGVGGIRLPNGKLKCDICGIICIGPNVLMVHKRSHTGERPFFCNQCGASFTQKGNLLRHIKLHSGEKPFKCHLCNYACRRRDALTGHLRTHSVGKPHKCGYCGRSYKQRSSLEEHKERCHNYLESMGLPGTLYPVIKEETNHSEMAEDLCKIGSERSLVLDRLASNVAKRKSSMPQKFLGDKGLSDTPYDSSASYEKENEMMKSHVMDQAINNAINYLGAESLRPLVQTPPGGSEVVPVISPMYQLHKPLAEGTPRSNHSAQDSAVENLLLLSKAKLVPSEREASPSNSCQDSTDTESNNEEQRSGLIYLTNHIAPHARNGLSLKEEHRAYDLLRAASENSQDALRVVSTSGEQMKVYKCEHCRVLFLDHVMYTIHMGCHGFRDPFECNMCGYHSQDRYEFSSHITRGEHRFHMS", "assay": "Small-molecule screen: Q1F degron-tagged CD19 CAR levels in Jurkat cells, flow cytometry", "assay_type": "cell-based", "description": "A set of potential degron-targeting compounds was screened against the Q1F degron, resulting in a set of potent degron/small-molecule pairs. Lentiviral vectors containing CD19 CARs tagged with IKZF1 ZNF2_ZNF3 Q1F Nluc were transduced into Jurkat cells. The CD19 CAR was similar to the CD19 CAR in Example 2, but comprising the ZNF2_ZNF3 Q1F degron (SEQ ID NO: 19). Transduced cells were treated with a titration of each small molecule or no drug and then incubated at 37° C. for 18 hours. Cells were washed and stained with appropriate staining reagent to measure CAR levels. The cells were incubated at 4° C. in the staining reagents for 20 mins and then washed 3 times before being read on the flow cytometer. CAR levels were normalized to cells that had not been treated with drug. EC50 and Ymin values were calculated using the resulting titration curve. This identified small molecules that potently degraded the Q1F degron-tagged CARs (Table 1)."}, "[2]": {"test_system": "H-1975 ROR1 expressing target cell line", "assay": "Primary CAR T effector function (tumor killing, cytokine production) in co-culture", "assay_type": "cell-based", "details": "1:4 effector:target, 24 hours, different concentrations", "description": "(§1) The ability to use compounds to titrate primary CAR T effector function by degrading IKZF1 ZNF2_3 Q1F tagged anti-ROR1 CAR (FIG. 13A) was evaluated. The CAR included similar transmembrane, costimulatory, and signaling domains as the CD19 CAR, but with an anti-ROR1 scFv. A lentiviral vector encoding ZNF2_3 Q1F tagged or untagged anti-ROR1 CAR was transduced into activated primary T cells. Transduced cells were expanded for 10 days in media supplemented with IL2, IL7, and IL15, then frozen. Prior to the experiment, cells were thawed and allowed to rest in media with a dose titration of Compound C or without drug. […] To determine the impacts of CAR degradation on CAR T activity, cells were then co-cultured with a Nuclight red labeled H-1975 ROR1 expressing target cell line at a 1:4 effector:target cell ratio. Co-cultures were placed in the Incucyte for 24 hours to monitor tumor killing via Nuclight red signal (FIG. 14A), and supernatants were collected to measure proinflammatory cytokine production by MSD (FIG. 14B-14D; IL-2, TNFα, and IFNγ)."}, "[3]": {"test_system": "CD19 CARs tagged with IKZF1 ZNF2_ZNF3 Q1F", "assay": "Small-molecule screen: Q1F degron-tagged CD19 CAR levels in Jurkat cells, flow cytometry", "assay_type": "cell-based, human", "details": "versus Helios, Aiolos, Ikaros, GSPT1, CK1a"}, "[4]": {"test_system": "IKZF1 ZNF2_3 Q1F tagged anti-ROR1 CAR", "assay": "CAR surface levels in primary T cells, flow cytometry", "assay_type": "cell-based, human", "details": "dose titration", "description": "as §1"}, "[5]": {"molecular_target": "T2, ePL-tagged Ikaros (Homo sapiens, UniProt Q13422+Q96SW2)", "T2 construct": "expressed in transfected cells", "T2 sequence (Q13422 whole entry)": "as the sequence (Q13422 whole entry Q146F) above, with F146Q counted along it", "T2 sequence (Q96SW2 whole entry)": "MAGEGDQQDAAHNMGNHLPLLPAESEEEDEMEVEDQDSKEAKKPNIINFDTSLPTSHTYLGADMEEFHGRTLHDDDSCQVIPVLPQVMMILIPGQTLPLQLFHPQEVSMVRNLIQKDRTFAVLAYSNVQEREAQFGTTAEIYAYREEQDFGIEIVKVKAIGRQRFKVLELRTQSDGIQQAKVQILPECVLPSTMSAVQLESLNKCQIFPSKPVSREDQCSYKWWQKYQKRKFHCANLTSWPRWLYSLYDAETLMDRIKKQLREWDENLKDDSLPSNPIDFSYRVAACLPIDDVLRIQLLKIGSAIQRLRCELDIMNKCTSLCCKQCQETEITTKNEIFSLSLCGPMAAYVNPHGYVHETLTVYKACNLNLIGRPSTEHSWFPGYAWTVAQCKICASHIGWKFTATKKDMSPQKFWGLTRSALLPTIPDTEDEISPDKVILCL", "T2 sequence (Q16531 whole entry partner)": "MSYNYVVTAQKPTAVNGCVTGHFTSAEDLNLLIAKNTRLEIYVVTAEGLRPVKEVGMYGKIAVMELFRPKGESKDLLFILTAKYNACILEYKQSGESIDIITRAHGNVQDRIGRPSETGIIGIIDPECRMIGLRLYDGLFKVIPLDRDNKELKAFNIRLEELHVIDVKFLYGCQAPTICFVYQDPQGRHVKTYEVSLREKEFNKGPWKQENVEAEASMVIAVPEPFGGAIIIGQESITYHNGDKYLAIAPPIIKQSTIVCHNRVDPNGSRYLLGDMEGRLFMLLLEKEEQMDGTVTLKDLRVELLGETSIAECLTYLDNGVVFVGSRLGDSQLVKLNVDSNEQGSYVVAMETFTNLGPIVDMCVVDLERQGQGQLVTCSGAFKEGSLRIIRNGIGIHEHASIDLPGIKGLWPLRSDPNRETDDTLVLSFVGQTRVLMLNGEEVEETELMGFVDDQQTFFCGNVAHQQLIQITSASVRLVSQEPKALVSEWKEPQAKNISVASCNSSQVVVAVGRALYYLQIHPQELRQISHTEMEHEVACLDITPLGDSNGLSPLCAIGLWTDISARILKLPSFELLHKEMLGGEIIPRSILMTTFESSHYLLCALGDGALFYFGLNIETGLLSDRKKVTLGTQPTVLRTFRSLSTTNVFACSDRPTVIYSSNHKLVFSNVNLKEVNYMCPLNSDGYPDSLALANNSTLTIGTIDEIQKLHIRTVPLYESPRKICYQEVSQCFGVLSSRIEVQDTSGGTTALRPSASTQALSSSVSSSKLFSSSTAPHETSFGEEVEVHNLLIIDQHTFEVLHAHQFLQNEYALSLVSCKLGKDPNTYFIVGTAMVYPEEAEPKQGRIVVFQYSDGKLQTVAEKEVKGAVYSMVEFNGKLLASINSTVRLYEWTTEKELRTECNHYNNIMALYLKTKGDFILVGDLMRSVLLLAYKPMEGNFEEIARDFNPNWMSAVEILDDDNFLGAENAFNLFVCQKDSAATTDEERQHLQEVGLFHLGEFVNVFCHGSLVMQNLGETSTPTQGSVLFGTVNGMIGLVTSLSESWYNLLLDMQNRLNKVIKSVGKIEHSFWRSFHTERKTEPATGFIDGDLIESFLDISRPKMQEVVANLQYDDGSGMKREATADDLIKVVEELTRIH", "assay": "ePL-tagged substrate degradation in DF15 multiple myeloma cells", "assay_type": "cell-based", "description": "(§2) DF15 multiple myeloma cells stably expressing ePL-tagged Aiolos, Ikaros, or GSPT1, and MDS-L cells stably expressing ePL-tagged CK1a were generated via lentiviral infection with pLOC-ePL-Aiolos (or Ikaros, GSPT1, or CK1a). […] Compounds were dispensed by an acoustic dispenser (ATS acoustic transfer system from EDC Biosystems) into a 384-well plate in a 10-point dose response curve using 3-fold dilutions starting at 10 μM and going down to […]. Then, 25 μL of media (RPMI-1640+10% heat inactivated FBS+25 mM Hepes+1 mM Na pyruvate+1× NEAA+1×Pen Strep Glutamine) containing 5000 of DF15 or MSD-L cells was dispensed per well. Assay plates were incubated at 37° C. with 5% CO2 for 4 hours except 20 hours for GSPT1. After incubation, 25 μL of the InCELL Hunter detection reagent working solution (DiscoverX, catalogue no. 96-0002, Fremont, Calif.) was added to each well and incubated at room temperature for 60 min protected from light. After 60 min, luminescence was read on an Envision or PHERAstar luminescence reader.\n(§3) To determine the EC50 value of a compound for the degradation of a given substrate (concentration of compound that achieves half the maximum degradation observed), a four-parameter logistic model (sigmoidal dose—response model) (FIT=(A+{(B−A)/1+[(C/x)D]})) where C is the inflection point (EC50), D is the […], and A and B are the low and high limits of the fit, respectively) was used. All substrate degradation curves were processed and evaluated using ActivityBase (IDBS), a data analysis software package. Ymin is minimum percent protein remaining."}, "[6]": {"molecular_target": "T3, ePL-tagged GSPT1 (Homo sapiens, UniProt P15170+Q96SW2)", "T3 construct": "expressed in transfected cells", "T3 sequence (P15170 whole entry)": "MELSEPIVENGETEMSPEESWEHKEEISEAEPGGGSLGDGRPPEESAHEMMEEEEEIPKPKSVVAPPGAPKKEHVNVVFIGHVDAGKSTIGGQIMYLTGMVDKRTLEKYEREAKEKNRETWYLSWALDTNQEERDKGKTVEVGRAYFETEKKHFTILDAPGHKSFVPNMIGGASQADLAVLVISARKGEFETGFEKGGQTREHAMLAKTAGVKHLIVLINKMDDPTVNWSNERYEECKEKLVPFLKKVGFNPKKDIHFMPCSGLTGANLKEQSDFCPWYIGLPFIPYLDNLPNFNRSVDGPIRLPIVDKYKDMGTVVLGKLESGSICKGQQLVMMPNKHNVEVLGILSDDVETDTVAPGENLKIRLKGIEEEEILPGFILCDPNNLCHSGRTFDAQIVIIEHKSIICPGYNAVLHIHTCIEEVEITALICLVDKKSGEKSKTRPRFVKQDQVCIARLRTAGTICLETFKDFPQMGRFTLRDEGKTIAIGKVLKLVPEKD", "T3 sequence (Q96SW2 whole entry)": "as the sequence (Q96SW2 whole entry) above", "T3 sequence (Q16531 whole entry partner)": "as the sequence (Q16531 whole entry partner) above", "assay": "ePL-tagged substrate degradation in DF15 multiple myeloma cells", "assay_type": "cell-based", "description": "as §2, §3"}, "[7]": {"molecular_target": "T4, Helios (Homo sapiens, UniProt Q96SW2+Q9UKS7)", "T4 construct": "endogenous in cells; host or cells: Jurkat/Helios/HiBit cells (CRISPR/Cas9 knock-in)", "T4 sequence (Q9UKS7 whole entry)": "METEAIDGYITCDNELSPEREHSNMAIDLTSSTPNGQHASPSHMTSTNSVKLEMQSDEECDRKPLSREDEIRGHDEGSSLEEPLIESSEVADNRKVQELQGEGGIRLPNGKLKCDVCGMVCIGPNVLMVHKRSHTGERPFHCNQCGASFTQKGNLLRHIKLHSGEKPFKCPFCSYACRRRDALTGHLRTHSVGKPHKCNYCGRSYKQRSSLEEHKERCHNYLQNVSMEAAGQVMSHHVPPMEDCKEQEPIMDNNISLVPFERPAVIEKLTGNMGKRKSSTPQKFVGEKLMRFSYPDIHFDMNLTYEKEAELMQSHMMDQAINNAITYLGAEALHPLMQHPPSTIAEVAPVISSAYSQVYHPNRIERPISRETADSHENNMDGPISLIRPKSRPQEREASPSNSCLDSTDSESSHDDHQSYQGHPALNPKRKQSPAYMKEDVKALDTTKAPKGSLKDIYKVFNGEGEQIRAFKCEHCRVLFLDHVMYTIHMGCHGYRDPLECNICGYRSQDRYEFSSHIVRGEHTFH", "T4 sequence (Q96SW2 whole entry)": "as the sequence (Q96SW2 whole entry) above", "T4 sequence (Q16531 whole entry partner)": "as the sequence (Q16531 whole entry partner) above", "assay": "Helios HiBit degradation in Jurkat cells", "assay_type": "cell-based", "description": "For Helios, a stable Jurkat cell line was engineered using CRISPR/Cas9 to insert an in-frame HiBit tag into the carboxy-terminal reading frame of the IKZF2 gene. Test compounds were transferred to 1536 well plates using an acoustic dispenser, and Jurkat/Helios/HiBit cells in DMEM/10% FCS were plated at 10,000 cells/well in a final volume of 5 ul. Cells were incubated at 37C, 95% RH for 18 hr. Luciferase activity was measured by adding 2 ul/well of Nano-Glo reagent (Promega), incubating at RT for 30 min, and reading luminescence on a microtiter plate reader.\nAll substrate degradation curves were processed and evaluated using ActivityBase (IDBS), a data analysis software package. Ymin is minimum percent protein remaining."}, "[8]": {"test_system": "IKZF1 ZNF2_3 Q1F tagged CD19 CAR", "assay": "CRBN and ubiquitin-proteasome pathway dependence of Q1F-tagged CAR degradation in Jurkat cells", "assay_type": "cell-based, human", "design": "tagged CAR remaining / levels of tagged CAR: dose or concentration left out as unconfirmed", "description": "The dependence of Q1F-degron-tagged CAR degradation on CRBN and ubiquitin proteolytic pathway were assessed. CD19-targeting CAR was tagged with either IKZF1 ZNF2_3 Q1F (SEQ ID NO: 19) or Q1F/G6N (SEQ ID NO: 59). Lentiviral vectors containing these tagged CARs were then transduced into wildtype (WT) or cereblon (CRBN) knockout (KO) Jurkat cells.\nNext, dependence of CAR degradation on the ubiquitin-proteosome pathway was tested by treating WT Jurkats transduced with tagged CAR for 2 hours with DMSO, 20 nM or 200 nM Compound C alone, or alongside either 2 μM of the NEDD8 E1 enzyme inhibitor MLN4924 or 2 μM of proteasome blocker Bortezomib (FIG. 11C)."}}, "note": "Read-outs that look alike come from different tables or passages of the source.", "data": [{"smiles": "Cc1ncccc1N1CCN(Cc2ccc3c(c2)CN(C2CCC(=O)NC2=O)C3=O)CC1", "note": "(stereo not shown) [Compound C, 3-(5-((4-(2-methylpyridin-3-yl)piperazin-1-yl)methyl)-1-oxoisoindolin-2-yl)piperidine-2,6-dione]", "values": [{"measurement": "Ymin (%)", "setting": "[1]; Degron Q1F (from Table 1), minimum percent protein remaining", "value": 12, "unit": "%"}, {"measurement": "DC50", "setting": "[1]; Degron Q1F (from Table 1), read-out: EC50 (the source's name)", "value": 23, "unit": "nM"}, {"measurement": "DC50", "setting": "[1]; Jurkat assay described in Example 5, read-out: EC50 for the Q1F degron", "value": "< 25", "unit": "nM"}, {"measurement": "Ymin (Q1F degron)", "setting": "[1]; Jurkat cells, 18 hours, CAR levels normalized to no drug", "value": 12, "unit": "%"}, {"measurement": "DC50", "setting": "[1]; Jurkat cells, 18 hours, CAR levels normalized to no drug, read-out: EC50 (Q1F degron)", "value": 23, "unit": "nM"}, {"measurement": "effector function of primary CAR T cells (killing and cytokine production)", "setting": "[2]", "value": "could be titrated"}, {"measurement": "selectivity for the Q1F degron (in words)", "setting": "[3]", "value": "highly selective for the Q1F degron"}, {"measurement": "surface levels of ZNF2_3 Q1F-tagged CAR", "setting": "[4]", "value": "could be titrated"}, {"measurement": "Ymin (%)", "setting": "[5]", "value": 92, "unit": "%"}, {"measurement": "DC50", "setting": "[5]; Ikaros, DF15 cells, 4 hours, read-out: EC50 (the source's name)", "value": "> 10000", "unit": "nM"}, {"measurement": "Ymin (%)", "setting": "[6]", "value": 89, "unit": "%"}, {"measurement": "DC50", "setting": "[6]; GSPT1, DF15 cells, 20 hours, read-out: EC50 (the source's name)", "value": "> 10000", "unit": "nM"}, {"measurement": "Ymin (%)", "setting": "[7]", "value": 86, "unit": "%"}, {"measurement": "DC50", "setting": "[7]; Helios, Jurkat/Helios/HiBit cells, 18 hr, read-out: EC50 (the source's name)", "value": "> 10000", "unit": "nM"}, {"measurement": "tagged CAR remaining", "setting": "[8]; WT Jurkat cells, 1 hour", "value": "below 20%"}, {"measurement": "tagged CAR degradation in the presence of inhibitor", "setting": "[8]; WT Jurkats, 2 hours, 20 nM or 200 nM, alongside 2 μM MLN4924 or 2 μM Bortezomib", "value": "failure to degrade tagged CAR"}]}]}
